For series [1], the target named is T1, Replicase polyprotein 1ab (Severe acute respiratory syndrome coronavirus 2, UniProt P0DTD1). As to the kind of experiment: Inhibition of SARS-CoV-2 3CLpro using Dabcyl-KTSAVLQSGFRKM-Glu(Edans) as substrate preincubated for 60 mins in absence of GSH followed by substrate addition and measured after 30 mins by FRET assay.
Series [2] concerns the target T1, Replicase polyprotein 1ab. Description: Inhibition of SARS-CoV-2 3CLpro using Dabcyl-KTSAVLQSGFRKM-Glu(Edans) as substrate preincubated for 1 hrs in presence of 2 mM GSH followed by substrate addition and measured after 30 mins by FRET assay. To be noted: read-out: IC50.
A short description of series [3]: GSH reactivity in HEPES buffer at pH 7.4 assessed as half life at 1 uM. To be noted: glutathione (GSH) in HEPES buffer. In kind it is ADME.
Another series relates to SARS-CoV-2. As to the kind of experiment: microbe, parasite or virus in culture. To be noted: Severe acute respiratory syndrome coronavirus 2, Vero.
Another series relates to Human coronavirus 229E. Description: Antiviral activity against HCoV-229E expressing renilla luciferase reporter gene infected in human Huh-7 cells pre-infected […] for 1 hr followed by compound addition and measured after 6 hrs by luciferase based assay. In kind it is functional, organism-based.
The nature of series [4]: Inhibition of MERS-CoV 3CLpro using Dabcyl-KTSAVLQSGFRKM-Glu(Edans) as substrate preincubated 1 hr in presence of 2 mM GSH followed by substrate addition and measured after 30 mins by FRET assay. Set-up: species or system Middle East respiratory syndrome-related coronavirus.
Series [5] can be described thus: Inhibition of human cathepsin 1 using QXL520/HiLyteFlour 488 as substrate preincubated for 60 mins and measured after 30 mins by fluorescence based assay.
In series [6] the target is T2, Calpain-1 catalytic subunit (Homo sapiens, UniProt P07384).
T2 sequence (P07384 whole entry): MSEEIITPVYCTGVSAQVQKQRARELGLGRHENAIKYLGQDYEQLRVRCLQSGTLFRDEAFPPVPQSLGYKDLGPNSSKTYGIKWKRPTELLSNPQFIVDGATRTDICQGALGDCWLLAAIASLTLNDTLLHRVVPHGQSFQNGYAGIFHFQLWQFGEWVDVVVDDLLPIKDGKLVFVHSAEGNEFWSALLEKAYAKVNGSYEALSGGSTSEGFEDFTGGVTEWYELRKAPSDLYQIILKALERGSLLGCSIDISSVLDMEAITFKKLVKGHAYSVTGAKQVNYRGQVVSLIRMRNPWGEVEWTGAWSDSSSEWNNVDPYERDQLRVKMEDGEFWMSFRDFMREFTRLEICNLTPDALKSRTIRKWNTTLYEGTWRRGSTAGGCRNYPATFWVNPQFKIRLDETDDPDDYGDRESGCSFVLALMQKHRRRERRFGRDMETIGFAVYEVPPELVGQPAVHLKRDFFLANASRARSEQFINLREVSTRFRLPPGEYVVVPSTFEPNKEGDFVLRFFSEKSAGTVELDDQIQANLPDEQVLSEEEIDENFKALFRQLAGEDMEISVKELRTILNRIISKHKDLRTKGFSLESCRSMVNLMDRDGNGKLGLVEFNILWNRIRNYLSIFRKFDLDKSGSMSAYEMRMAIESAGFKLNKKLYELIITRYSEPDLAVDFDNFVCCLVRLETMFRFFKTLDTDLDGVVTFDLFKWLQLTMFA
Description: Inhibition of human calpain 1 using (DABCYL)-TPLKSPPPSPR-(EDANS) as substrate incubated for 30 mins in presence of calcium ions and GSH and measured after 30 mins by fluorescence based assay.

In series [7] the target is Replicase polyprotein 1ab (Human coronavirus 229E, UniProt P0C6X1). As to the kind of experiment: Inhibition of hCoV-229E 3CLpro using Dabcyl-KTSAVLQSGFRKM-Glu(Edans) as substrate preincubated 1 hr in presence of 2 mM GSH followed by substrate addition and measured after 30 mins by FRET assay.
The target in series [8] is T1, Replicase polyprotein 1ab. As to the kind of experiment: Inhibition of SARS-CoV-2 3CLpro using Dabcyl-KTSAVLQSGFRKM-Glu(Edans) as substrate preincubated for 60 mins in presence of GSH followed by substrate addition and measured after 30 mins by FRET assay.
For series [9], the target named is Replicase polyprotein 1ab (Severe acute respiratory syndrome coronavirus 2) (UniProt P0DTD1). Description: Reversible inhibition of SARS-CoV-2 3CLpro using Dabcyl-KTSAVLQSGFRKM-Glu(Edans) as substrate at 10 times IC50 preincubated for 1 hr followed by 100-fold dilution to 0.1 times IC50 with substrate solution by jump dilution assay.
Series [10] can be described thus: Inhibition of C-terminal 6-His tagged recombinant SARS-CoV 3CLpro (Ser1 to Gln306 residues) extracted from Escherichia coli using Dabcyl-KTSAVLQSGFRKM-Glu(Edans) as substrate preincubated 1 hr in presence of 2 mM GSH followed by substrate addition and measured after 30 mins by FRET assay. Set-up: species or system Severe acute respiratory syndrome-related coronavirus.

Series [11] addresses Replicase polyprotein 1ab (Severe acute respiratory syndrome coronavirus 2) (UniProt P0DTD1). As to the kind of experiment: Binding affinity to SARS-CoV-2 3CLpro assessed as change in melting temperature at 40 uM measured after 30 mins by SYPRO Orange staining based thermal shift assay.
Series [12] has the same target. Description: Binding affinity to 2H,15N-labelled SARS-CoV-2 3CLpro substrate binding pocket assessed as chemical shift perturbations at interface of domains I and II at 500 uM by 2D 1H,15N-HSQC NMR analysis.
For series [13], the target named is T1, Replicase polyprotein 1ab. Description: Inhibition of SARS-CoV-2 3CLpro using Dabcyl-KTSAVLQSGFRKM-Glu(Edans) as substrate preincubated for 30 mins followed by substrate addition and measured after 30 mins by FRET assay.

Results on 2 molecules are retold here after ChEMBL document CHEMBL5608212, “N-acylbenzimidazoles as selective Acylators of the catalytic cystein of the coronavirus 3CL protease” (Eur J Med Chem, 2024).

Structures are written as SMILES. Activity calls are given as the source filed them. The calls are words filed in the database; no cut-off is given here. Where only a bound is given, the exact number is not on record here.

Sequence of Replicase polyprotein 1ab (Human coronavirus 229E, UniProt P0C6X1) (P0C6X1 2966-3267 limits assumed): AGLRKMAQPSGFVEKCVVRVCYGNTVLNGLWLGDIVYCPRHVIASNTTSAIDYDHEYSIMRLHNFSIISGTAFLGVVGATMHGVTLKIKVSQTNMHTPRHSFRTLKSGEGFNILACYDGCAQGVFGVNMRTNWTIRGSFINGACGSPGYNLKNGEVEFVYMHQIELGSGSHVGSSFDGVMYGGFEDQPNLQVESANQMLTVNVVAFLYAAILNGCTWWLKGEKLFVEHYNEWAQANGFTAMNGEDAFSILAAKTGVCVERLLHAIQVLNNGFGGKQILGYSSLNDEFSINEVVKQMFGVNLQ

As to `CSc1nc2cc3c(cc2n1C(=O)c1ccc(C)cc1)OCO3`, the IC50 was 85.1 nM in series [1] (read-out: pIC50 (converted)); 70 nM in series [2]; 990 nM in series [4]; greater than 100000 nM in series [5]; greater than 100000 nM in series [6]; 750 nM in [7]. The IC50 in series [8] (read-out: pIC50 (converted)) was 120 nM; in series [10], 150 nM. Also, the half-life – broadly, the time in which the quantity being followed falls by half – at 1 µM in [3] came out at 16 min. Besides, the concentration for a half-maximal effect (EC50) (as a rule, the concentration at which the effect is half-maximal) with SARS-CoV-2 was determined as 3100 nM; in the series on Human coronavirus 229E it was 4800 nM. Further, the pIC50 (as a rule, the negative decadic logarithm of the IC50, by convention in mol/L) in [4] is listed as 6.01; in series [10], 6.82. Further, in [9], the inhibition entry was “Active”.

As for `CSc1nc2cc3c(cc2n1C(=O)c1ccc(C)cc1)OCCO3`, the IC50 in series [1] (read-out: IC50) was 380 nM; in series [2], 140 nM; in series [13], 140 nM; in series [4], 2500 nM; in series [5] it was greater than 100000 nM; in series [6], greater than 100000 nM. The IC50 was 190 nM in [7], 390 nM in series [8] (read-out: IC50) and 1700 nM in series [10]. In addition, in series [11], the ΔTm – broadly, the change in melting temperature against a reference sample – was found to be 1.47 °C. In addition, the result in [12] was Active. The response with Human coronavirus 229E was half-maximal at 7300 nM (EC50). Also, the pIC50 worked out at 5.6 in series [4] and 5.77 in series [10].
